What follows are compounds tested against T1, CFTR channel in human colonic T84 cells (Homo sapiens, UniProt P13569) (assay: T84 assay (FLIPR membrane potential dye, forskolin/IBMX-stimulated CFTR)). Settings: average of at least 2 runs unless annotated n = 1.
T1 construct: results in the phosphorylation and opening of CFTR anion channels; host or cells: human colonic T84 cells
Assay type: cell-based
Description: (§1) For example, Human colonic T84 cells can be acquired from the European Collection of Cell Cultures (ECACC) and grown in standard culture conditions as described by the supplier. On the day before assay 25,000 T84 cells per well are plated into standard black walled, clear bottom 384-well assay plates in standard growth medium consisting of DMEM:F12 with 10% FBS and incubated overnight. On the day of the assay the plates are washed using a standard assay buffer (HBSS with 10 mM Hepes) and incubated for 15 minutes in serum free cell culture medium before the addition of a commercially available membrane potential sensitive fluorescent dye (FLIPR Red membrane potential dye, Molecular Devices Corporation). T84 cells are incubated with the FLIPR Red membrane potential dye for 45 minutes in the presence and absence of test compound before being transferred to a commercially available fluorescence imaging plate reader (FLIPR384, Molecular Devices Corporation). Fluorescence levels are monitored continuously every second for 150 seconds; after an initial 10 second baseline, CFTR channel activity is stimulated through the addition of 10 μM forskolin in the presence of 100 μM of the phosphodiesterase inhibitor iso-butyl-methylxanthine (IBMX). Addition of the forskolin leads to the activation of intracellular adenylyl cylase 1, elevating cAMP levels and results in the phosphorylation and opening of CFTR anion channels. CFTR channel opening causes chloride ion efflux and subsequent depolarization of the cells, which is measured by an increase in fluorescence. CFTR inhibitor compounds prevent cell depolarization and the associated increase in fluorescence.
as §1, with “Human colonic” for “For example, Human colonic”, “T84 cells are acquired from” for “T84 cells can be acquired from”, “(ECACC) and are grown in” for “(ECACC) and grown in”

T1 sequence (P13569 whole entry): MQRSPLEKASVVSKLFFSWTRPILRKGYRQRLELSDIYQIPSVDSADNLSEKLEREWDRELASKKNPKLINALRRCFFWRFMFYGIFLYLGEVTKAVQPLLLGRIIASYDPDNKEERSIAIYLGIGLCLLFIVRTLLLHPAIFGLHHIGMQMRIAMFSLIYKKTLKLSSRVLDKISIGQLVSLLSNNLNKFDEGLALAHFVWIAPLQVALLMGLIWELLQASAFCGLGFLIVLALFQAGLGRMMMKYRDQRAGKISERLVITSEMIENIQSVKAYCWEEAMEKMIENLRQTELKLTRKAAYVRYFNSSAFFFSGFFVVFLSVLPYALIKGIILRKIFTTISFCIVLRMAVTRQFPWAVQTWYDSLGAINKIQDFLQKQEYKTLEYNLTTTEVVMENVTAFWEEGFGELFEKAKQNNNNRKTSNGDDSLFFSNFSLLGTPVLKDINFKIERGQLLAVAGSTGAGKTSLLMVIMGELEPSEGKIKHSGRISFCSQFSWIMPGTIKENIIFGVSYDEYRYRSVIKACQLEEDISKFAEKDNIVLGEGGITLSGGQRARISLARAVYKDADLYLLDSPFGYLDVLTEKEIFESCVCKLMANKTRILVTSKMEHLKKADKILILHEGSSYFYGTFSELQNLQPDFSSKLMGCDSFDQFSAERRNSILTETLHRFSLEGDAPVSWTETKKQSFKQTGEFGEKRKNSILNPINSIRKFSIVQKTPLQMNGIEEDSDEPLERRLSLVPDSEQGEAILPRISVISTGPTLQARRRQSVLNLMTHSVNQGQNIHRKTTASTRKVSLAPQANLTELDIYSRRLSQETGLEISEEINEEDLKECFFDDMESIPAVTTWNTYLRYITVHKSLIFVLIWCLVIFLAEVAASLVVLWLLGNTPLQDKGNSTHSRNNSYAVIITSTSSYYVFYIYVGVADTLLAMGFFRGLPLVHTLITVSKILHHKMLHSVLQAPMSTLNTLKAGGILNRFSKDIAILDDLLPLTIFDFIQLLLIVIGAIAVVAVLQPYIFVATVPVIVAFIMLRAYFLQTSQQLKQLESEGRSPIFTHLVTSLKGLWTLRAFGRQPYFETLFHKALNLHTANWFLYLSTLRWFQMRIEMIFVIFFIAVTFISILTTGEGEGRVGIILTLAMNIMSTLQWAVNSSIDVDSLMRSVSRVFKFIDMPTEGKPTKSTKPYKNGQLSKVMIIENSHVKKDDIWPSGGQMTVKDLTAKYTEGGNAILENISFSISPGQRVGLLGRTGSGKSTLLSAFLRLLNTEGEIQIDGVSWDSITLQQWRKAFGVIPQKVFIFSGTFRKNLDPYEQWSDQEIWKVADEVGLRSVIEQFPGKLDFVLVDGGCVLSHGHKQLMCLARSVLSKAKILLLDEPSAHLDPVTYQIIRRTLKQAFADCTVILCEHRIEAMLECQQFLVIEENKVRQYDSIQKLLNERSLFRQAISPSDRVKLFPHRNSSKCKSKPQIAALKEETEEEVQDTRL

| Structure (SMILES) | IC50 |
| --- | --- |
| Oc1c(Br)cc(-c2cnc(OCCc3cccc4ccccc34)nn2)cc1Br [Compound 1, 2,6-dibromo-4-(3-(2-(naphthalen-1-yl)ethoxy)-1,2,4-triazin-6-yl)phenol] | 0.26 µM |
| Oc1c(Br)cc(-c2cnc(OCCc3ccc(Br)cc3)nn2)cc1Br [Compound 2, 2,6-dibromo-4-(3-(4-bromophenethoxy)-1,2,4-triazin-6-yl)phenol] | 0.32 µM |
| Oc1c(Br)cc(-c2cnc(OCc3ccc(F)c(F)c3)nn2)cc1Br [Compound 3, 2,6-dibromo-4-(3-(3,4-difluorobenzyloxy)-1,2,4-triazin-6-yl)phenol] | 0.48 µM |
| Oc1c(Br)cc(-c2cnc(OCc3ccc(F)cc3F)nn2)cc1Br [Compound 4, 2,6-dibromo-4-(3-(2,4-difluorobenzyloxy)-1,2,4-triazin-6-yl)phenol] | 0.54 µM |
| COc1ccc(Cl)cc1COc1ncc(-c2cc(Br)c(O)c(Br)c2)nn1 [Compound 5, 2,6-dibromo-4-(3-(5-chloro-2-methoxybenzyloxy)-1,2,4-triazin-6-yl)phenol] | 0.7 µM |
| Oc1c(Br)cc(-c2cnc(OCc3ccccc3Br)nn2)cc1Br [Compound 6, 2,6-dibromo-4-(3-(2-bromobenzyloxy)-1,2,4-triazin-6-yl)phenol] | 0.7 µM |
| Oc1c(Br)cc(-c2cnc(OCc3cccc(Cl)c3)nn2)cc1Br [Compound 7, 2,6-dibromo-4-(3-(3-chlorobenzyloxy)-1,2,4-triazin-6-yl)phenol] | 0.72 µM |
| Oc1c(Br)cc(-c2cnc(OCc3ccc4ccccc4c3)nn2)cc1Br [Compound 8, 2,6-dibromo-4-(3-(naphthalen-2-ylmethoxy)-1,2,4-triazin-6-yl)phenol] | 0.72 µM |
| Oc1c(Br)cc(-c2cnc(OCc3ccc(F)cc3Cl)nn2)cc1Br [Compound 9, 2,6-dibromo-4-(3-(2-chloro-4-fluorobenzyloxy)-1,2,4-triazin-6-yl)phenol] | 0.77 µM |
| Oc1c(Br)cc(-c2cnc(OCCc3ccc(Cl)cc3Cl)nn2)cc1Br [Compound 10, 2,6-dibromo-4-(3-(2,4-dichlorophenethoxy)-1,2,4-triazin-6-yl)phenol] | 0.66 µM |
| CC(Oc1ncc(-c2cc(Br)c(O)c(Br)c2)nn1)c1ccc(Cl)cc1 (centres unmarked) [Compound 11, 2,6-dibromo-4-(3-(1-(4-chlorophenyl)ethoxy)-1,2,4-triazin-6-yl)phenol] | 0.84 µM |
| CC(Oc1ncc(-c2cc(Br)c(O)c(Br)c2)nn1)c1cccc(Cl)c1 (centres unmarked) [Compound 12, 2,6-dibromo-4-(3-(1-(3-chlorophenyl)ethoxy)-1,2,4-triazin-6-yl)phenol] | 0.84 µM |
| Oc1c(Br)cc(-c2cnc(OCc3cccc4ccccc34)nn2)cc1Br [Compound 13, 2,6-dibromo-4-(3-(naphthalen-1-ylmethoxy)-1,2,4-triazin-6-yl)phenol] | 0.88 µM |
| Oc1c(Br)cc(-c2cnc(OCc3ccc(-c4ccccc4)cc3)nn2)cc1Br [Compound 14, 4-(3-(biphenyl-4-ylmethoxy)-1,2,4-triazin-6-yl)-2,6-dibromophenol] | 0.89 µM |
| Oc1c(Br)cc(-c2cnc(OCc3ccc(Cl)cc3Cl)nn2)cc1Br [Compound 15, 2,6-dibromo-4-(3-(2,4-dichlorobenzyloxy)-1,2,4-triazin-6-yl)phenol] | 0.94 µM |
| Oc1c(Br)cc(-c2cnc(OCc3ccc(C(F)(F)F)cc3)nn2)cc1Br [Compound 16, 2,6-dibromo-4-(3-(4-(trifluoromethyl)benzyloxy)-1,2,4-triazin-6-yl)phenol] | 1.07 µM |
| CN(C)c1cccc(COc2ncc(-c3cc(Br)c(O)c(Br)c3)nn2)c1 [Compound 17, 2,6-dibromo-4-(3-(3-(dimethylamino)benzyloxy)-1,2,4-triazin-6-yl)phenol] | 1.17 µM |
| Oc1c(Br)cc(-c2cnc(OCc3ccccc3Cl)nn2)cc1Br [Compound 18, 2,6-dibromo-4-(3-(2-chlorobenzyloxy)-1,2,4-triazin-6-yl)phenol] | 1.18 µM |
| Oc1c(Br)cc(-c2cnc(OCc3ccccc3)nn2)cc1Br [Compound 19, 4-(3-(benzyloxy)-1,2,4-triazin-6-yl)-2,6-dibromophenol] | 1.37 µM |

| Structure (SMILES) | IC50 |
| --- | --- |
| Oc1c(Br)cc(-c2cnc(OCc3ccc(Cl)cc3)nn2)cc1Br [Compound 20, 2,6-dibromo-4-(3-(4-chlorobenzyloxy)-1,2,4-triazin-6-yl)phenol] | 0.85 µM |
| Oc1c(Br)cc(-c2cnc(Oc3ccc(Cl)c(Cl)c3)nn2)cc1Br [Compound 21, 2,6-dibromo-4-(3-(3,4-dichlorophenoxy)-1,2,4-triazin-6-yl)phenol] | 2.12 µM |
| Oc1c(Br)cc(-c2cnc(OCc3c(Cl)cc(Cl)cc3Cl)nn2)cc1Br [Compound 22, 2,6-dibromo-4-(3-(2,4,6-trichlorobenzyloxy)-1,2,4-triazin-6-yl)phenol] | 2.33 µM |
| Oc1c(Br)cc(-c2cnc(OCc3cccc(Cl)c3Cl)nn2)cc1Br [Compound 23, 2,6-dibromo-4-(3-(2,3-dichlorobenzyloxy)-1,2,4-triazin-6-yl)phenol] | 2.7 µM |
| Oc1c(Br)cc(-c2cnc(OCc3ccc(Br)cc3)nn2)cc1Br [Compound 24, 2,6-Dibromo-4-(3-(4-bromobenzyloxy)-1,2,4-triazin-6-yl)phenol] | 3.02 µM |
| Oc1c(Br)cc(-c2cnc(OCc3cccc(Br)c3)nn2)cc1Br [Compound 25, 2,6-dibromo-4-(3-(3-bromobenzyloxy)-1,2,4-triazin-6-yl)phenol] | 19.8 µM |
| Oc1c(Br)cc(-c2cnc(OCc3cc(Cl)cc(Cl)c3)nn2)cc1Br [Compound 26, 2,6-dibromo-4-(3-(3,5-dichlorobenzyloxy)-1,2,4-triazin-6-yl)phenol] | 0.38 µM |
| Oc1c(Br)cc(-c2cnc(OCc3cccc(Oc4ccccc4)c3)nn2)cc1Br [Compound 27, 2,6-dibromo-4-(3-(3-phenoxybenzyloxy)-1,2,4-triazin-6-yl)phenol] | 0.56 µM |
| Oc1c(Br)cc(-c2cnc(OCc3ccc(OC(F)(F)F)cc3)nn2)cc1Br [Compound 28, 2,6-dibromo-4-(3-(4-(trifluoromethoxy)benzyloxy)-1,2,4-triazin-6-yl)phenol] | 15.5 µM |
| Cc1cc(Cl)ccc1COc1ncc(-c2cc(Br)c(O)c(Br)c2)nn1 [Compound 29, 2,6-dibromo-4-(3-(4-chloro-2-methylbenzyloxy)-1,2,4-triazin-6-yl)phenol] | 1.35 µM |
| Oc1c(Br)cc(-c2cnc(COc3cccc(Cl)c3Cl)nn2)cc1Br [Compound 30, 2,6-dibromo-4-(3-((2,3-dichlorophenoxy)methyl)-1,2,4-triazin-6-yl)phenol] | 9.59 µM |
| Oc1c(Br)cc(-c2cnc(C(O)(c3ccccc3)c3ccccc3)nn2)cc1Br [Compound 32, 2,6-dibromo-4-(3-(hydroxydiphenylmethyl)-1,2,4-triazin-6-yl)phenol] | 4.93 µM |
| Oc1c(Br)cc(-c2cnc(COc3cccc4ccccc34)nn2)cc1Br [Compound 33, 2,6-Dibromo-4-(3-((naphthalen-1-yloxy)methyl)-1,2,4-triazin-6-yl)phenol] | 5.39 µM |
| Cc1ccc(Cl)c(OCc2ncc(-c3cc(Br)c(O)c(Br)c3)nn2)c1 [Compound 34, 2,6-dibromo-4-(3-((2-chloro-5-methylphenoxy)methyl)-1,2,4-triazin-6-yl)phenol] | 11.6 µM |
| CC(C)(c1ccccc1)c1ccc(OCc2ncc(-c3cc(Br)c(O)c(Br)c3)nn2)cc1 [Compound 35, 2,6-dibromo-4-(3-((4-(2-phenylpropan-2-yl)phenoxy)methyl)-1,2,4-triazin-6-yl)phenol] | 7.31 µM |
| Oc1c(Cl)cc(-c2cnc(C(O)(c3ccccc3)c3ccccc3)nn2)cc1Cl [Compound 36, 2,6-dichloro-4-(3-(hydroxydiphenylmethyl)-1,2,4-triazin-6-yl)phenol] | 7.67 µM |
| Oc1c(Cl)cc(-c2cnc(COc3cccc(Cl)c3Cl)nn2)cc1Cl [Compound 37, 2,6-dichloro-4-(3-((2,3-dichlorophenoxy)methyl)-1,2,4-triazin-6-yl)phenol] | 8.61 µM |
| Cc1cc(Cl)ccc1OCc1ncc(-c2cc(Br)c(O)c(Br)c2)nn1 [Compound 39, 2,6-dibromo-4-(3-((4-chloro-2-methylphenoxy)methyl)-1,2,4-triazin-6-yl)phenol] | 10.9 µM |
| Cc1cc(Cl)ccc1OCc1ncc(-c2cc(Cl)c(O)c(Cl)c2)nn1 [Compound 40, 2,6-dichloro-4-(3-((4-chloro-2-methylphenoxy)methyl)-1,2,4-triazin-6-yl)phenol] | 10.5 µM |
